Results from PubChem BioAssay AID248 (DTP/NCI, 2004).
Where “and” joins values, the source holds several entries; their conditions need not be identical. Equal values may be shown once. Toxic doses and inconclusive results are not listed. Cut-off read from the data, not from the text of the source: active = T/C of 150% or more; inactive = T/C below 125%.

Test system: L1210 leukemia ip in BDF1 mice, survival T/C
Assay: NCI In Vivo Anticancer Drug Screen. Data for tumor model L1210 Leukemia (intraperitoneal) in B6D2F1 (BDF1) mice
Details: endpoint: mean survival time, higher = longer survival
Procedure, shortened: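 Tumor was transplanted into mice, which were then dosed with test compound or vehicle alone. Survival was recorded for each group, and the treated figure was expressed relative to the control figure.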

[1] = dose: 100.0 mg/kg/injection, schedule: Q01DX009 (ip), vehicle: saline
[2] = dose: 200.0 mg/kg/injection, schedule: Q01DX009 (ip), vehicle: saline
[3] = dose: 100.0 mg/kg/injection, schedule: Q01DX005 (ip), vehicle: saline
[4] = dose: 200.0 mg/kg/injection, schedule: Q01DX005 (ip), vehicle: saline
[5] = dose: 100.0 mg/kg/injection, schedule: Q01DX001 (ip), vehicle: saline
[6] = dose: 200.0 mg/kg/injection, schedule: Q01DX001 (ip), vehicle: saline
[7] = dose: 400.0 mg/kg/injection, schedule: Q01DX001 (ip), vehicle: saline
[8] = dose: 50.0 mg/kg/injection, schedule: Q01DX001 (ip), vehicle: saline
[9] = dose: 100.0 mg/kg/injection, schedule: Q04DX002 (ip), vehicle: Klucel (hydroxypropylcellulose) (HPC)
[10] = dose: 200.0 mg/kg/injection, schedule: Q04DX002 (ip), vehicle: Klucel (hydroxypropylcellulose) (HPC)
[11] = dose: 100.0 mg/kg/injection, schedule: Q04DX003 (ip), vehicle: saline
[12] = dose: 50.0 mg/kg/injection, schedule: Q01DX009 (ip), vehicle: saline
[13] = dose: 100.0 mg/kg/injection, schedule: Q04DX003 (ip), vehicle: saline with Tween-80
[14] = dose: 200.0 mg/kg/injection, schedule: Q04DX003 (ip), vehicle: saline with Tween-80
[15] = dose: 400.0 mg/kg/injection, schedule: Q04DX003 (ip), vehicle: saline with Tween-80

Measured: T/C

CCO[Si](CC)(CC)CC
inactive: [1] 100 % of control | [2] 98 % of control | dose: 400.0 mg/kg/injection, schedule: Q01DX009 (ip), vehicle: saline 102 % of control

COc1ccc(-c2ccc(OC)cc2[N+](=O)[O-])c([N+](=O)[O-])c1
inactive: dose: 100.0 mg/kg/injection, schedule: Q01DX001 (ip), vehicle: carboxymethylcellulose (CMC) 100 % of control | dose: 200.0 mg/kg/injection, schedule: Q01DX001 (ip), vehicle: carboxymethylcellulose (CMC) 100 % of control | dose: 400.0 mg/kg/injection, schedule: Q01DX001 (ip), vehicle: carboxymethylcellulose (CMC) 102 % of control

OCC1OC(n2cnc3nccnc32)C(O)C1O (configuration not stated)
inactive: [3] 98 % of control | [4] 110 % of control

O=C(N/N=C/c1cc(Cl)ccc1O)c1cccc2ccccc12
inactive: [5] 94 % of control | [6] 92 % of control | [7] 86 % of control

COc1ccc(CC2NCCc3cc(OC)c(OC)cc32)cc1OC (configuration not stated)
inactive: dose: 75.0 mg/kg/injection, schedule: Q01DX001 (ip), vehicle: saline 101 % of control

COC(=O)C1C(O)CCC2CN3CCc4c([nH]c5ccccc45)C3CC21 (configuration not stated)
inactive: [8] 102 % of control | dose: 75.0 mg/kg/injection, schedule: Q01DX Z (ip), vehicle: carboxymethylcellulose (CMC) 92 % of control | [5] 91 % of control | dose: 150.0 mg/kg/injection, schedule: Q01DX Z (ip), vehicle: carboxymethylcellulose (CMC) 100 % of control

Cc1cc(C)c(O)c(N=Nc2ccccc2)c1
inactive: dose: 100.0 mg/kg/injection, schedule: Q04DX003 (ip), vehicle: saline sonified 95 % of control | dose: 200.0 mg/kg/injection, schedule: Q04DX003 (ip), vehicle: saline sonified 93 % of control | dose: 400.0 mg/kg/injection, schedule: Q04DX003 (ip), vehicle: saline sonified 91 % of control

COc1cccc2c1CCC1C2CC=C2CC3(CCC21C)OCCO3 (configuration not stated)
inactive: dose: 100.0 mg/kg/injection, schedule: Q01DX009 (sc), vehicle: steriod suspending solution 102 % of control | dose: 200.0 mg/kg/injection, schedule: Q01DX009 (sc), vehicle: steriod suspending solution 102 % of control | dose: 400.0 mg/kg/injection, schedule: Q01DX009 (sc), vehicle: steriod suspending solution 101 % of control

O=Cc1c(Cl)n(C(=O)c2ccccc2)c2ccccc12
inactive: dose: 50.0 mg/kg/injection, schedule: Q04DX002 (ip), vehicle: Klucel (hydroxypropylcellulose) (HPC) 90 % of control | [9] 87 % of control | [10] 97 % of control

CCN(CC)CCCNc1cc(C)c(C)cc1[N+](=O)[O-]
inactive: [11] 100 % of control

O=C(c1ccccc1)c1cc(-c2cc(=O)cc(-c3cc(C(=O)c4ccccc4)c(O)cc3O)o2)c(O)cc1O
inactive: [5] 96 % of control | [6] 105 % of control | [7] 94 % of control

CCC(C=NCCBr)(CCC(=O)OC)CCC(=O)OC
inactive: dose: 100.0 mg/kg/injection, schedule: Q04DX002 (ip), vehicle: saline 102 % of control | dose: 200.0 mg/kg/injection, schedule: Q04DX002 (ip), vehicle: saline 102 % of control | dose: 400.0 mg/kg/injection, schedule: Q04DX002 (ip), vehicle: saline 112 % of control

CC(=O)OCC1OC(n2cnc3c(=O)[nH]c(N)nc32)C(OC(C)=O)C1OC(C)=O (configuration not stated)
inactive: [3] 91 % of control | [4] 102 % of control and 109 % of control

COc1ccc2c(c1)CCN(C1=C(C)C(=O)CC1)C2CC(=O)O (configuration not stated)
inactive: [5] 104 % of control | [6] 101 % of control | [7] 90 % of control

Clc1ccc2n[nH]c(Cl)c2c1
inactive: dose: 12.5 mg/kg/injection, schedule: Q01DX009 (ip), vehicle: saline 95 % of control | dose: 25.0 mg/kg/injection, schedule: Q01DX009 (ip), vehicle: saline 101 % of control | [12] 98 % of control | [5] 92 % of control | [1] 96 % of control | [6] 92 % of control | [7] 102 % of control

COc1cc(OC)c(-c2nc3ccccc3c(=O)o2)cc1OC
inactive: dose: 75.0 mg/kg/injection, schedule: Q01DX009 (ip), vehicle: Klucel (hydroxypropylcellulose) (HPC) 93 % of control | dose: 150.0 mg/kg/injection, schedule: Q01DX009 (ip), vehicle: Klucel (hydroxypropylcellulose) (HPC) 97 % of control | dose: 300.0 mg/kg/injection, schedule: Q01DX009 (ip), vehicle: Klucel (hydroxypropylcellulose) (HPC) 101 % of control

C(=N\Nc1nc2ccccc2s1)/c1ccccc1
inactive: dose: 100.0 mg/kg/injection, schedule: Q01DX009 (ip), vehicle: Klucel (hydroxypropylcellulose) (HPC) 95 % of control | dose: 200.0 mg/kg/injection, schedule: Q01DX009 (ip), vehicle: Klucel (hydroxypropylcellulose) (HPC) 102 % of control | dose: 400.0 mg/kg/injection, schedule: Q01DX009 (ip), vehicle: Klucel (hydroxypropylcellulose) (HPC) 100 % of control

CC1(C)C=CN(c2ccccc2)C(=O)O1
inactive: [9] 94 % of control | [10] 98 % of control | dose: 400.0 mg/kg/injection, schedule: Q04DX002 (ip), vehicle: Klucel (hydroxypropylcellulose) (HPC) 98 % of control

O=[N+]([O-])c1ccccc1SSSc1ccccc1[N+](=O)[O-]
inactive: [5] 89 % of control | [6] 93 % of control | [7] 101 % of control

CCOC(=O)Cc1cc(Cl)c2ccc(Cl)cc2n1
inactive: [12] 96 % of control | [1] 95 % of control | [11] 101 % of control | [2] 90 % of control | dose: 200.0 mg/kg/injection, schedule: Q04DX003 (ip), vehicle: saline 95 % of control | dose: 400.0 mg/kg/injection, schedule: Q04DX003 (ip), vehicle: saline 92 % of control

ClCc1ccc(OCc2ccccc2)c(OCc2ccccc2)c1
inactive: dose: 100.0 mg/kg/injection, schedule: Q04DX003 (ip), vehicle: water 104 % of control | dose: 200.0 mg/kg/injection, schedule: Q04DX003 (ip), vehicle: water 100 % of control | dose: 400.0 mg/kg/injection, schedule: Q04DX003 (ip), vehicle: water 102 % of control

CC(=O)/C(=C\N(C)C)C(=O)Nc1ccccn1
inactive: dose: 100.0 mg/kg/injection, schedule: Q01DX001 (ip), vehicle: saline with Tween-80 98 % of control | dose: 200.0 mg/kg/injection, schedule: Q01DX001 (ip), vehicle: saline with Tween-80 101 % of control | dose: 400.0 mg/kg/injection, schedule: Q01DX001 (ip), vehicle: saline with Tween-80 93 % of control

OCc1ccn2c1C(O)CC2 (configuration not stated)
inactive: dose: 29.0 mg/kg/injection, schedule: Q01DX009 (ip), vehicle: saline 100 % of control | dose: 45.0 mg/kg/injection, schedule: Q01DX009 (ip), vehicle: saline 115 % of control | [13] 108 % of control | dose: 150.0 mg/kg/injection, schedule: Q01DX009 (ip), vehicle: saline 111 % of control | [14] 117 % of control | [15] 97 % of control

COC(=O)/C(C)=C/CC(C)C(=O)OC (configuration not stated)
inactive: [8] 102 % of control | [5] 96 % of control | [6] 105 % of control

C[n+]1c(-c2ccc(Cl)c(Cl)c2)c2cc(N)ccc2c2ccccc21
inactive: dose: 3.12 mg/kg/injection, schedule: Q01DX009 (ip), vehicle: water 102 % of control | dose: 6.25 mg/kg/injection, schedule: Q01DX009 (ip), vehicle: water 110 % of control | dose: 12.5 mg/kg/injection, schedule: Q01DX009 (ip), vehicle: water 104 % of control | dose: 12.5 mg/kg/injection, schedule: Q04DX003 (ip), vehicle: water 105 % of control | dose: 25.0 mg/kg/injection, schedule: Q04DX003 (ip), vehicle: water 93 % of control

C/C(=C\c1cc(-c2ccccc2)cc(=O)o1)c1ccccc1
inactive: dose: 100.0 mg/kg/injection, schedule: Q01DX009 (ip), vehicle: saline with Tween-80 89 % of control | [13] 104 % of control | dose: 200.0 mg/kg/injection, schedule: Q01DX009 (ip), vehicle: saline with Tween-80 97 % of control | [14] 95 % of control | dose: 400.0 mg/kg/injection, schedule: Q01DX009 (ip), vehicle: saline with Tween-80 89 % of control | [15] 103 % of control

C=C(Cl)CN(C)CC(=C)Cl
inactive: [5] 102 % of control

O=C1CCCCC1(CCc1ccncc1)CCc1ccncc1
inactive: dose: 44.0 mg/kg/injection, schedule: Q01DX Z (ip), vehicle: methylcellulose (MC) 96 % of control | dose: 66.0 mg/kg/injection, schedule: Q01DX Z (ip), vehicle: methylcellulose (MC) 102 % of control | dose: 100.0 mg/kg/injection, schedule: Q01DX Z (ip), vehicle: methylcellulose (MC) 109 % of control
